“Also recorded” adds a separate entry of the source.
How the values were obtained:
[1] = biological target: T1, α5β1 receptor purified from human placenta (Homo sapiens, UniProt P05556+P08648); assay: Integrin receptor ligand binding assay, α5β1 / fibronectin; conditions: biotinylated fibronectin
T1 construct: α5β1 receptor purified from human placenta; purchased Chemicon International; host or cells: human placenta (tissue-purified)
Method: (§1) Integrin αVβ3 and α5β1 receptor purified from human placenta were obtained from Chemicon International. Platelet integrin αIIbβ3 was purified from platelets according to established procedures. Receptors were coated (100 µl/well) on Costar (3590) high capacity binding plates overnight at 4°C. Coating solution was discarded and plates were washed once with blocking/binding (B/B) buffer (50 mM Tris HCl, pH 7.4, 100 mM NaCl, 2mM CaCl2, 1 mM MgCl2, 1 mM MnCl2 and 1% BSA).
(§2) One hundred ten microliters of B/B buffer was applied for 60 min at RT. Thirty µl of biotinylated extracellular matrix protein ligand (fibronectin for integrin α5β1, vitronectin for integrin αVβ3 and fibrinogen for integrin αIIbβ3) plus 50 µl of either SJ749 in B/B buffer or B/B buffer alone were added to each well, and incubated for 25 min at RT. Plates were washed twice with B/B buffer and incubated 1 hr at RT, with anti-biotin alkaline phosphatase (100 µl/well) in B/B buffer. Finally, plates were washed twice with B/B followed by the addition of 100 µl of phosphatase substrate (1.5 mg/ml). Reaction was stopped by adding 2N NaOH (25 µl/well), and the developed color was read at 405 nm.

Integrin αVβ3 = biological target: T2, Integrin αVβ3 (Homo sapiens, UniProt P05106+P06756); assay: Integrin receptor ligand binding assay, αVβ3 / vitronectin; conditions: biotinylated vitronectin for αVβ3
T2 construct: Integrin αVβ3 and α5β1 receptor purified from human placenta; purchased Chemicon International; host or cells: human placenta (tissue-purified, as the sentence is read)
Method: as §1, §2

[2] = tested on: integrin α5β1 positive cells, including α5β1 HT29 colon carcinoma cells, CEF's, and HUVEC's; assay: Cell adhesion assay on fibronectin, results in words for the α5β1 positive cells together; type: cell-based; conditions: antibodies 50 µg/ml, cyclic peptides 10 µM, SJ749 0-10 µM
Excerpt: (§3) HT29 integrin α5β1 cells, integrin α5β1 colon carcinoma cells (Varner et al., Mol. Biol. Cell 6:725-740 (1995)), and chick embryo fibroblasts (CEF's) were maintained in DMEM high glucose supplemented with 10% fetal bovine serum (FBS) and gentamycin. Human umbilical vein endothelial cells (HWEC's) were maintained in M199 medium containing sodium bicarbonate, HEPES, heparin, endothelial cell growth supplement, 20% FBS and gentamycin. Culture media and reagents were from Irvine Scientific (Irvine, CA).
(§4) The wells of 48 well culture dishes (Costar, Inc.) were coated with 1 µg/ml vitronectin, 2 µg/ml fibronectin (chick embryo fibroblasts and HUVEC's) or 10 µg/ml fibronectin (HT29-α5^+ cells) for 1 hr at 37°C, then blocked with 2% heat denatured BSA in PBS for 1 hr. […]
(§5) Cells were allowed to adhere to dishes for 20 min at 37°C. […] Crystal violet was extracted by incubation for 15 min in 10% acetic acid and absorbance at 562 nm determined as an indicator of number of cells bound. […]

α5^+ HT29 cells = assay: Cell adhesion assay on fibronectin, HT29-α5+ cells; type: cell-based; conditions: Homo sapiens, HT-29, 0-10 µM SJ749, Figure 1, read-out: half maximal inhibitory concentration, adhesion to fibronectin
Excerpt: as §3, §4, §5

HUVEC's = assay: Cell migration assay (transwell); type: cell-based, human; conditions: 4 hr at 37°C
Method: The Lower side of 8 µm pore transwell inserts (Costar, Inc.) were coated with 2 µg/ml of fibronectin, collagen (Collaborative Biomedical Products; Bedford MA) or no protein for 1 hr and were blocked with 2% BSA in PBS for 1 hr. The inserts then were placed into 24 well culture dishes containing 500 µl migration buffer in the lower chamber. Twenty-five thousand HUVEC's in 50 µl of migration buffer (HEPES buffered M199 medium containing 1% BSA, 2 mM MgCl2, 2 mM CaCl2 and 0.2 mM MnCl2) were added to the upper chamber of duplicate inserts containing 50 µl of a solution of 50 µg/ml of anti-α5β1 function blocking antibody (NKI-SAM-1, JBS5 or IIA1), 50 µ/ml of anti-α5β1 non-function blocking antibody (HA5 or VC5), or 50 µg/ml of LM609 (an anti-αVβ3 function blocking antibody) in migration buffer, or migration buffer alone.
Cells were allowed to migrate from the upper to the lower chamber for 4 hr at 37°C. Nonmigratory cells were removed from the upper surface by wiping the upper side with an absorbant tip, and cells that had migrated to the lower side of the transwell insert were fixed for 15 min with 3.7% paraformaldehyde in PBS, then stained with a 2% crystal violet solution. After extensive water washing to remove excess crystal violet, the number of cells that had migrated were counted in three representative high power (200X) fields per insert. […]

[3] = tested on: HT29 colon carcinoma cells lacking α5β1 expression; assay: Chick CAM tumor assay, HT29; type: in vivo; conditions: antibody 25 µg topically; for effect on tumor size (in words): peptide or small molecule 25 µM intravenously
Method: The chick CAM tumor assay was performed by placing ten million tumor cells on the surface of a CAM, and culturing the cells for one week. The resulting tumors were excised and cut into 50 mg fragments. […] Forty-eight hours later, CAM's were excised from the egg and the number of blood vessels entering the tumors were counted (as vessel branch points) .
Data was presented as mean blood vessel number per treatment group (+/- standard error of measurement). Each treatment group incorporated at least ten tumors per experiment. Representative tumors were photographed at 10X magnification. Tumors were excised from the egg and tumor weights were determined for each tumor. Data was presented as mean tumor weight per treatment group (+/- standard error of measurement). Statistical analyses were performed using Student's t-test.
HT29 colon carcinoma cells lacking α5β1 expression were grown on the CAM's of 10-day old embryos. These tumor cells secrete several angiogenic growth factors, including VEGF, TGFα, TGFβ, TNFα, and IL-8 (Anzano et al., Cancer Res. 49:2898-2904 (1989); Varner et. al., supra, 1995; Ellis et al., J. Biol. Chem. 273:1052-1057 (1998)). Integrin α5β1 negative tumor cells were used to distinguish the potential anti-tumor effects from anti-vasculature effects of integrin α5β1 antagonists.

[4] = tested on: blood vessel branch points in chorioallantoic membranes (CAM's); assay: In ovo chick chorioallantoic membrane (CAM) angiogenesis assay; type: in vivo; conditions: for effect on bFGF-induced angiogenesis (in words): bFGF stimulated CAM
Excerpt: Ten day old embryonated chicken eggs (McIntyre Poultry; Ramona CA) were candled to illuminate blood vessels under the shell and an area with a minimum of small blood vessels is identified. The CAM was dropped away from the eggshell in this area by grinding a small hole in the mineralized shell and applying pressure to the underlying inner shell membrane. This procedure caused an air pocket to shift from the wide end of the egg to the identified area and forcing a circular region of the CAM approximately 2 cm in diameter to drop away from the shell. A window was cut in the egg shell and a cortisone acetate pre-treated filter disc 5 mm in diameter that had been saturated in 1 µg/ml bFGF, VEGF, TNFα, IL-8 (Genzyme, Inc.; Cambridge MA) or saline was placed on the CAM. The window in the shell was sealed with adhesive tape and the egg was incubated for four days.
Anti-fibronectin antibodies (25 µg in 25 µl) also were applied topically to the CAM.
Fibronectin, vitronectin and fibronectin fragments (59 pmol in a final volume of 25 µl) were applied to stimulated or unstimulated CAM's. Peptide or small molecule antagonists of α5β1 (at a final serum concentration of 0-25 µM) also were injected intravenously into the chick circulation 24 hr later. CAM's were harvested on the fourth day of stimulation. Blood vessel branch points in the 5 mm filter disk area were counted at 30 X magnification in a blinded fashion as a size-independent quantitative indicator of vascular sprouting in response to growth factors. Angiogenesis is characterized by the sprouting of new vessels in response to growth factors. Thus, counting of blood vessel branch points is a useful quantitative means of obtaining an angiogenic index (Brooks et al., In "Methods in Molecular Biology" (Humana Press 1999). At least ten embryos were used per treatment group. Each experiment was performed a minimum of three times.
Data was evaluated in terms of average number of blood vessel branch points per treatment group +/- standard error of measurement. Statistical analyses were performed using Student's t-test. […]

[5] = tested on: α5β1 HT29 colon carcinoma cells, CEF's, and HUVEC's; assay: Cell adhesion assay on vitronectin; type: cell-based; conditions: 1 µg/ml vitronectin coat
Excerpt: as §3, §4, §5

T1 sequence (P08648 42-894 limits assumed): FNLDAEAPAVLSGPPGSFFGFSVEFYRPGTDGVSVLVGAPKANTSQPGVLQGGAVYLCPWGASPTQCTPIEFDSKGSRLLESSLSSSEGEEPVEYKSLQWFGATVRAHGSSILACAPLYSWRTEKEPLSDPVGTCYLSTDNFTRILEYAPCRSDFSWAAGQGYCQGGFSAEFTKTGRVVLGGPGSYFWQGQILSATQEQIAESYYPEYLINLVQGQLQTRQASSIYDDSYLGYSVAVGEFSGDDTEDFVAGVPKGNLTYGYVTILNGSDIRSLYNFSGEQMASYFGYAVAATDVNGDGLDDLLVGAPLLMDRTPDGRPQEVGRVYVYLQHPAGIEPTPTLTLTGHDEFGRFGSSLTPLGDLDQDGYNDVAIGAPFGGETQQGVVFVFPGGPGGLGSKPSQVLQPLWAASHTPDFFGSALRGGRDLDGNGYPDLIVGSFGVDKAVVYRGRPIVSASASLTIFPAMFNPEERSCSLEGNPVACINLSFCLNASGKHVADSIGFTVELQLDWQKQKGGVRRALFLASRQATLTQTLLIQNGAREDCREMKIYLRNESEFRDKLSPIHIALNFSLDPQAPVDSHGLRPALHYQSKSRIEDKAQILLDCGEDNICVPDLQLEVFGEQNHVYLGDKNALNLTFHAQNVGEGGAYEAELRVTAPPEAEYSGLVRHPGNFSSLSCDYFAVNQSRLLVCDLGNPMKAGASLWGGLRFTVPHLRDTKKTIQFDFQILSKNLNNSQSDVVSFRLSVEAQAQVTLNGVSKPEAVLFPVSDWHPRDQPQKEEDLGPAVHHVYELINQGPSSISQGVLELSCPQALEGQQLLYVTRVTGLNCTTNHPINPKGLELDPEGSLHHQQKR
T1 sequence (P08648 895-1049 partner limits assumed): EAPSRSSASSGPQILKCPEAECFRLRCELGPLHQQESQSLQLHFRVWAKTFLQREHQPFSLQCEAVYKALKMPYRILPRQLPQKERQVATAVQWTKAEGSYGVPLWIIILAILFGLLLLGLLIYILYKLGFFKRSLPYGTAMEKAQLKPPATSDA
T1 sequence (P05556 21-798): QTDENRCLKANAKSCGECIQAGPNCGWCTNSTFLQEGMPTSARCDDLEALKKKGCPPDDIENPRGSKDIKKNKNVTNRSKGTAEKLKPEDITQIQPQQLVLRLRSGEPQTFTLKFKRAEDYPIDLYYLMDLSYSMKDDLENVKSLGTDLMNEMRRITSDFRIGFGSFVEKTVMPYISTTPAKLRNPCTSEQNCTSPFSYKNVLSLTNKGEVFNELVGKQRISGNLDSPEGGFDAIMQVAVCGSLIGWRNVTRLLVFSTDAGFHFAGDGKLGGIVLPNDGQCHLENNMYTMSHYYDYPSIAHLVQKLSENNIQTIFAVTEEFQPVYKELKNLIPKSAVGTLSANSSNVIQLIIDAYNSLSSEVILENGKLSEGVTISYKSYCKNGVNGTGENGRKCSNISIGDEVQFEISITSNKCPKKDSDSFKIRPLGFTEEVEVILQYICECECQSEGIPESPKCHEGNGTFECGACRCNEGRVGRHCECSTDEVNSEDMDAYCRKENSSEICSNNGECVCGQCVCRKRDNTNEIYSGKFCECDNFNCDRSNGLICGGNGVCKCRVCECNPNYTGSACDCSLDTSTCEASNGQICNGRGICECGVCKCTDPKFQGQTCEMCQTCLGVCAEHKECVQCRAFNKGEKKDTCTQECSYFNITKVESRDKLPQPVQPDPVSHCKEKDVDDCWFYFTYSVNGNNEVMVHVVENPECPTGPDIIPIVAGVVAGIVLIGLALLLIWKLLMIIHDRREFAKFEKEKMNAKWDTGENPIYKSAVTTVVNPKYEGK
T2 sequence (P06756 31-889 limits assumed): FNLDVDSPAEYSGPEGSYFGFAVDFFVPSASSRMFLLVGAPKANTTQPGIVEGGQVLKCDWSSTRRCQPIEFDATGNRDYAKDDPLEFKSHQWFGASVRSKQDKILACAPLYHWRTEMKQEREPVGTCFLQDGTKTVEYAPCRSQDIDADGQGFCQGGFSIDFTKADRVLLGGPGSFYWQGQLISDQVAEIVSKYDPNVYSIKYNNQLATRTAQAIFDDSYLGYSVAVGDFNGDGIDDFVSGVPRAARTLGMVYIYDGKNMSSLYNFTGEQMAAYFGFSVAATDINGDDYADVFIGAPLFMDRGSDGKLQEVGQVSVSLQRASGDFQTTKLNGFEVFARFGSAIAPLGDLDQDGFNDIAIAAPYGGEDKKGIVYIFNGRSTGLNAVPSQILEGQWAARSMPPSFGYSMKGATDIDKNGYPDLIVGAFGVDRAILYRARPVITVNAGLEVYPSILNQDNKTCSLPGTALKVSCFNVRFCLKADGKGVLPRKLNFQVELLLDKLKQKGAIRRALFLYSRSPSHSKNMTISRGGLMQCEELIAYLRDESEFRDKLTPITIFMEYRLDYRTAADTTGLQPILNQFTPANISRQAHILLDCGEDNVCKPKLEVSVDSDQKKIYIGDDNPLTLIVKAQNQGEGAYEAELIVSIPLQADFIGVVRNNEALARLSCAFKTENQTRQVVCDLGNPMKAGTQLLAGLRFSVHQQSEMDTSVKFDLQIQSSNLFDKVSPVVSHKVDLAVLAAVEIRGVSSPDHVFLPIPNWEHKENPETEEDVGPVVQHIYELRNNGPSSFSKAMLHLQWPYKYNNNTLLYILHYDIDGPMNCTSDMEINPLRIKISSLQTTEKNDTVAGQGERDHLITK
T2 sequence (P06756 891-1048 partner limits assumed): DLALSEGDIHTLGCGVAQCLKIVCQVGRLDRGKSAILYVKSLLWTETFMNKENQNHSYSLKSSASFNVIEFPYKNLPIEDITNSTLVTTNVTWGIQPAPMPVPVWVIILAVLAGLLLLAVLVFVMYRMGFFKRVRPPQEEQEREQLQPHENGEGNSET
T2 sequence (P05106 27-788): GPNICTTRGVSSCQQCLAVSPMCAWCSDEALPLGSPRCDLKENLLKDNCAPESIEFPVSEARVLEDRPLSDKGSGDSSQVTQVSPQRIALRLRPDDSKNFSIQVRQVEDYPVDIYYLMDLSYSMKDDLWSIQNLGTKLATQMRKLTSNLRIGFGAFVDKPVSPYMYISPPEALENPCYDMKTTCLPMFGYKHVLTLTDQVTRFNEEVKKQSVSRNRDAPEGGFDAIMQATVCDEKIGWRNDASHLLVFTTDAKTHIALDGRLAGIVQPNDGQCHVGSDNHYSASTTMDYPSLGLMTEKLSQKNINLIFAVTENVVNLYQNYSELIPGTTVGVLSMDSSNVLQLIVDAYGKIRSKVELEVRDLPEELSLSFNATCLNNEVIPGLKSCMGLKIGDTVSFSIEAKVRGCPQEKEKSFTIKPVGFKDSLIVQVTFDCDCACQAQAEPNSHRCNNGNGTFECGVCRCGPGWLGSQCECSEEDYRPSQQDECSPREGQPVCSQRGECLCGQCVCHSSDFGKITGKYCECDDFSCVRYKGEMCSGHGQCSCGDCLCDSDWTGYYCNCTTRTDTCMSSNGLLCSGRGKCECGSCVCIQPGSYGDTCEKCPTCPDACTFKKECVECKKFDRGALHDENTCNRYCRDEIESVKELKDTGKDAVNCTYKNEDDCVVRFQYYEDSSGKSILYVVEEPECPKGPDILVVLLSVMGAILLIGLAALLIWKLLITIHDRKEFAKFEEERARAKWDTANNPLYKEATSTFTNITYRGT

Molecule	effect on ligand binding to α5β1 (in words) [1]	effect on ligand binding to αVβ3 and other integrins (in words) (Integrin αVβ3)	effect on cell adhesion to fibronectin (in words) [2]	IC50 (α5^+ HT29 cells)	effect on endothelial cell migration on fibronectin (in words) (HUVEC's)	effect on endothelial cell migration on other matrix proteins, including collagen (in words) (HUVEC's)	tumors smaller than control treated tumors ([3]; peptide or SJ749 25 µM final serum concentration intravenously)	effect on tumor size (in words) [3]	effect on VEGF-induced angiogenesis (in words) ([4]; VEGF stimulated CAM)	effect on bFGF-induced angiogenesis (in words) [4]	effect on cell attachment to vitronectin (in words) [5]
Cc1cc(C)c(S(=O)(=O)N[C@@H](CNC(=O)C2=NOC3(C2)CC(CNc2ccccn2)N(C(=O)OCc2ccccc2)C3)C(=O)O)c(C)c1 (stereo partly drawn) [SJ749]	selectively inhibited ligand binding to α5β1; also recorded: interfered with α5β1 binding to fibronectin	substantially less effective in blocking ligand binding to αVβ3 and other integrins	blocked the adhesion of these cells to fibronectin in a concentration-dependent manner; also recorded: inhibitory effect	800 nM	highly effective in blocking endothelial cell migration on fibronectin	but not on other matrix proteins such as collagen	51%	induced tumor regression on the CAM	did not block VEGF angiogenesis	blocked bFGF-induced angiogenesis on chick CAM's in a dose-dependent manner when applied either topically or systemically; also recorded: dose dependent inhibitory effect; also recorded: reduced or inhibited angiogenesis in a dose dependent manner	ineffective in blocking cell attachment to vitronectin or other extracellular matrix ligands
CATAERWRC			little effect on cell adhesion to either fibronectin or vitronectin					continued to increase in size		did not inhibit angiogenesis	little effect on cell adhesion to either fibronectin or vitronectin
